Data on 11 compounds can be found in ChEMBL document CHEMBL1158597, “Investigation of Beckett-Casy model 2: synthesis of novel 15-16 nornaltrexone derivatives and their pharmacology” (Bioorg Med Chem Lett, 2010).

One assay deals with Mu-type opioid receptor (Cavia porcellus, UniProt P97266). The assay can be described thus: Displacement of [3H]DAMGO from mu opioid receptor in Hartley guinea pig forebrain by liquid scintillation counting. A general note: Displacement assays read how much labelled ligand stays bound in the presence of the test substance.
Assay [1] has as its target Kappa-type opioid receptor (Cavia porcellus, UniProt P41144). The assay can be described thus: Displacement of [3H][…] from kappa opioid receptor in Hartley guinea pig cerebellum by liquid scintillation counter. The format is tissue-based.
Assay [2] in a line: Displacement of [3H]NTI from delta opioid receptor in Hartley guinea pig forebrain by liquid scintillation counter. More on the design: species or system Cavia porcellus.

A word on the pKi: it is the negative decadic logarithm of the Ki, by convention in mol/L. A higher pKi goes with a small Ki. What is called pIC50 is the IC50 on a negative log10 scale, so that one unit is a factor of ten. Lower therefore signals a high IC50.

pIC50, pKi: −log10 of the molar value.

Kappa-type opioid receptor, sequence (P41144 whole entry): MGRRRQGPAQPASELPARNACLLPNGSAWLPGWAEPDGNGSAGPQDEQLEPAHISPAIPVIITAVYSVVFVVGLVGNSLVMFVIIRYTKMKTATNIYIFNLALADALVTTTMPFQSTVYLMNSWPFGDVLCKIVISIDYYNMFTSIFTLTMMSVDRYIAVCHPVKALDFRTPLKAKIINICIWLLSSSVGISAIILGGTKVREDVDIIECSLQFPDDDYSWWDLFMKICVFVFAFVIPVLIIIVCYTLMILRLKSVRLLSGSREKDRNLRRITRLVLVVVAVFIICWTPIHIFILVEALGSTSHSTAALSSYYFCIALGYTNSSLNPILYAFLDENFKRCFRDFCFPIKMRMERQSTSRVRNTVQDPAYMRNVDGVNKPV
Mu-type opioid receptor, sequence (P97266 whole entry): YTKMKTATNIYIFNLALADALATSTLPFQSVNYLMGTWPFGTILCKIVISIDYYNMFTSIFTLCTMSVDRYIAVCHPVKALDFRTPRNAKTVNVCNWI

On to `O=C1CC[C@@H]2[C@H]3c4c(ccc(O)c4O[C@@H]13)C[C@H]2NCC1CC1`, for which the negative-log Ki (pKi) is 7.52 on Mu-type opioid receptor and 7.49 in assay [1]. Also, the pIC50 in assay [2] is < 6.00.
On Mu-type opioid receptor, `CN[C@@H]1Cc2ccc(O)c3c2[C@H]2[C@@H](O3)C(=O)CC[C@@]12O` had a pKi of 6.93. Further, the pIC50 in assay [1] and in assay [2] was < 6.00 each time.
On to `CN(C)[C@@H]1Cc2ccc(O)c3c2[C@@H]2[C@H]1CCC(=O)[C@@H]2O3`, for which the negative-log Ki (pKi) at Mu-type opioid receptor is 7.29. For the same compound, the negative-log IC50 (pIC50) in assay [1] and in assay [2] was < 6.00 throughout.
As to `CN(CC1CC1)[C@@H]1Cc2ccc(O)c3c2[C@H]2[C@@H](O3)C(=O)CC[C@]21O`, the negative logarithm of the Ki (pKi) at Mu-type opioid receptor is 8.93; in assay [1], 8.29; in assay [2], 7.26.
With `CN(C)[C@@H]1Cc2ccc(O)c3c2[C@H]2[C@@H](O3)C(=O)CC[C@]21O`, the negative logarithm of the Ki (pKi) at Mu-type opioid receptor is 8.05. Besides, the pIC50 in assay [1] and in assay [2] was < 6.00 in each case.
In the case of `CN1CCO[C@@]23CCC(=O)[C@@H]4Oc5c(O)ccc(c5[C@@H]42)C[C@@H]13`, the pIC50 (at Mu-type opioid receptor; in assay [1]; in assay [2]) was < 6.00 in each case.
In turn, `O=C1CC[C@@]23OCCN(CC4CC4)[C@@H]2Cc2ccc(O)c4c2[C@H]3[C@H]1O4` had a pKi on Mu-type opioid receptor of 6.53. Besides, the pIC50 in assay [1] and in assay [2] was < 6.00 throughout.
In the case of `CN(CC1CC1)[C@@H]1Cc2ccc(O)c3c2[C@@H]2[C@H]1CCC(=O)[C@@H]2O3`, the figures for the negative-log Ki (pKi) (on Mu-type opioid receptor; in assay [1]; in assay [2]) were 8.47, 8.06 and 6.57, respectively.
Turning to `O=C1CC[C@]23OCCN4CC[C@@]25c2c(ccc(O)c2O[C@@H]15)C[C@@H]43`, the results for the pKi (at Mu-type opioid receptor; in assay [1]) were 7.07 and 7.14, respectively. Also, in assay [2], the pIC50 was < 6.00.
As to `O=C1CC[C@@]2(O)[C@H](NCC3CC3)Cc3ccc(O)c4c3[C@H]2[C@H]1O4`, the negative logarithm of the Ki (pKi) at Mu-type opioid receptor was 7.61; in assay [1], 7.16. Further, the pIC50 in assay [2] is < 6.00.
Take `CN[C@@H]1Cc2ccc(O)c3c2[C@@H]2[C@H]1CCC(=O)[C@@H]2O3`: the pKi at Mu-type opioid receptor is 6.79. Moreover, the negative-log IC50 (pIC50) in assay [1] and in assay [2] was < 6.00 in each case.
